SMILES strings stand for the structures.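 How tested: cells in 96-well plates exposed to compound for 48 hours at five concentrations. GI50: concentration for 50% inhibition of growth. At the TGI there is no net growth.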

Among the test systems are HCT-15 colon; SK-MEL-28 melanoma; SNB-19 CNS; OVCAR-3 ovarian; OVCAR-8 ovarian; MDA-MB-231 breast; COLO 205 colon; SN12C renal; MDA-MB-435; SK-MEL-2 melanoma.
What all share (experiment): growth of human tumour cells (NCI), 48 h

On to `O=C1C(Cl)=C(N/N=c2/[nH][nH]/c(=N/NC3=C(Cl)C(=O)c4ccccc4C3=O)c3ccccc23)C(=O)c2ccccc21`, for which the GI50 in the assay with HCT-15 colon is 19.8 µM; with SK-MEL-28 melanoma, 19.5 µM; in the assay with SNB-19 CNS, 14.6 µM; in the assay with OVCAR-3 ovarian, 15.6 µM; in the assay on OVCAR-8 ovarian it was 15.4 µM; in the assay with MDA-MB-231 breast it was 12 µM. The GI50 in the assay on COLO 205 colon was 16.1 µM; with SN12C renal, 15 µM; with MDA-MB-435 it was 17.8 µM; in the assay with SK-MEL-2 melanoma, 18.1 µM. For the same molecule, the TGI with HCT-15 colon is more than 100 µM; with SK-MEL-28 melanoma, 39 µM; in the assay on SNB-19 CNS it was 31.1 µM; in the assay on OVCAR-3 ovarian, 36.4 µM; in the assay on OVCAR-8 ovarian it was 35 µM; in the assay on MDA-MB-231 breast, 28.2 µM. The TGI with COLO 205 colon worked out at 32.9 µM; with SN12C renal it was 29.5 µM; in the assay on MDA-MB-435, 36.6 µM; in the assay with SK-MEL-2 melanoma, 35.9 µM.

As for `N#Cc1ncc(/N=C/c2ccc(N(CCCl)CCCl)cc2)s1`, the GI50 with HCT-15 colon is 21.8 µM; in the assay with SK-MEL-28 melanoma, 79.7 µM; in the assay with SNB-19 CNS it was 77.7 µM; in the assay on OVCAR-3 ovarian, 14.5 µM; in the assay on OVCAR-8 ovarian, 7.58 µM; in the assay with MDA-MB-231 breast it was 50.2 µM. The GI50 in the assay on COLO 205 colon was 64 µM; with SN12C renal it was 8.28 µM; in the assay with MDA-MB-435, 28.4 µM; in the assay with SK-MEL-2 melanoma, 69.9 µM. The TGI is more than 100 µM in the assay on HCT-15 colon; more than 100 µM in the assay on SK-MEL-28 melanoma; more than 100 µM in the assay with SNB-19 CNS; 45 µM in the assay on OVCAR-3 ovarian; more than 100 µM with OVCAR-8 ovarian; more than 100 µM with MDA-MB-231 breast. Further, the TGI in the assay on COLO 205 colon, in the assay on SN12C renal, with MDA-MB-435 and with SK-MEL-2 melanoma was more than 100 µM throughout.

(Values after PubChem BioAssay (NCI).)
